For test [1], the system named is C. elegans. Briefly: Worm respiration assay (Seahorse XF24). In kind it is in vivo. Particulars: day 3 adult worms. The method, then:
Worm Respiration Assays Oxygen consumption was measured using the Seahorse XF24 equipment (Seahorse Bioscience Inc., North Billerica, Mass.) as described in Yamamoto et al. Typically, 200 animals per conditions were recovered from NGM plates with M9 medium, washed three times in 2 mLM9 to eliminate residual bacteria, and resuspended in 500 μL M9 medium. Worms were transferred in 24-well standard Seahorse plates (#100777-004) (50 worms per well) and oxygen consumption was measured 6 times. Respiration rates were normalized to the number of worms in each individual well. NAD measurement by HPLC For NAD+ quantification, approximately 1000 worms were collected in M9 buffer, washed five times to remove residual bacteria and flash-frozen in liquid nitrogen and stored at −80° C. until analysis. Extraction was started by adding 250 μl of 1.6M perchloric acid on frozen samples, followed by extensive homogenization in a Qiagen tissuelyser, and centrifugation at 20.000 g for 15 min. The supernatant was recovered and neutralized with a 3M potassium carbonate solution. After centrifugation, 100 μl of supernatant was filtered and used for NAD measurement using an HPLC system (Agilent) with a Supelco LC-18-T column (Sigma), as described in Yoshino et al. (Yoshino, K. F. Mills, M. J. Yoon, S. Imai, Nicotinamide Mononucleotide, a Key NAD(+) Intermediate, Treats the Pathophysiology of Diet- and Age-Induced Diabetes in Mice. Cell Metab 14, 528 (2011)).

The test system of test [2] is C. elegans. Kind of test: Quantitative RT-PCR in worms. In kind it is in vivo. On the procedure:
mRNA and mtDNA Analysis. Total RNA was prepared using TRIzol (Invitrogen) according to the manufacturer's instructions. RNA was treated with DNase, and 2 μg of RNA was used for reverse transcription (RT). cDNA was purified on QIAquick PCR cleanup columns (Qiagen, Valencia, Calif., USA). 50× diluted cDNA was used for RT-quantitative PCR (RT-VCR) VCR) reactions (Bai et al., 2007). The RT-qPCR reactions were performed using the Light-Cycler system (Roche Applied Science) and a qPCR Supermix (Qiagen) with the primers for mice summarized in Table 1 and 4, and with the primers for worms summarized on Table 7. mtDNA quantification was performed as described (Lagouge et al., 2006) with the primers indicated in Table 2 and 5.

For test [3], the system named is C. elegans. Briefly: Confocal microscopy of mitochondria in body wall muscle (pmyo-3::mito::GFP reporter). Particulars: in vivo. On the procedure:
Confocal Microscopy and Image Processing Worms were immobilized with 6 mM solution of tetramisole hydrochloride (Sigma, Buchs, Switzerland) in M9 and mounted on 6% agarose pads on glass slides. Images of worms were acquired using Zeiss LSM 700 Upright confocal microscope (Carl Zeiss AG, Oberkochen, Germany) under non-saturating exposure conditions. All the snapshots were taken from the same part of C. elegans: muscles from the upper part of the worm, excluding the regions of oesophagus and vulva. For each condition multiple worms were observed and imaged. Image processing was performed with the Fiji software. One of the critical issues during the imaging process was the position of the worm, as it influences the level of background. For the uniformity of the represented images, contrast and brightness were adjusted in order, to eliminate the undesirable background signal. Neither of these manipulations was affecting the mitochondrial shape. Tracing of the mitochondrial network contour was done by the use of Gaussian blur filter followed by the application of Laplacian operator.

In test [4] the test system is C. elegans. Kind of test: Worm lifespan analysis. Particulars: for variation compared to control (%): vs N2 + water. Format: in vivo. On the procedure: Worm Lifespan Analysis Lifespan tests were performed as described in Mouchiroud et al (L. Mouchiroud et al., Pyruvate imbalance mediates metabolic reprogramming and mimics lifespan extension by dietary restriction in Caenorhabditis elegans. Aging Cell 10, 39 (2011)). Briefly, 60-100 animals were used per conditions and scored every other day. All lifespan experiments were performed at 20° C. […] Animals were exposed to compounds during the full life from eggs until death. To ensure a permanent exposure to the compound, plates were changed twice a week. All the compounds used in this study were dissolved in a water stock solution.

Test [5] deals with C. elegans. Kind of test: Worm fluorescence analysis (endogenous gut fluorescence/lipofuscin, sod-3::GFP). Particulars: in vivo. On the procedure:
Fluorescence Analysis Quantification of GFP expression and endogenous gut fluorescence were carried out according to the protocol as described in Yamamoto et al. (Yamamoto et al., NCoR1 is a conserved physiological modulator of muscle mass and oxidative function. Cell 147, 827 (2011)). Briefly, GFP was monitored in day 1 or day 3 adults. Fluorimetric assays were performed using a Victor X4 multilabel plate reader (Perkin-Elmer Life Science). Eighty worms were picked at random (20 worms per well of a black-walled 96-well plate) and each well was read four times and averaged. Each experiment was repeated at least three times. Endogenous gut fluorescence was monitored at day 1, day 4 and day 8 by following the same protocol as described before.

Test [6] relates to C. elegans. Kind of test: MitoSox staining of worms (mitochondrial superoxide). In kind it is in vivo. Particulars: day 3. The method, then: Briefly, a population of 100 worms was recovered in 1 ml of M9 buffer, washed three times to remove residual bacteria, and resuspended in 200 μl of 1:200 MitoSox stock solution (initial stock solution was dissolved at 1 mM in DMSO). After 20 minutes of treatment, worms were washed five times in 1 ml of M9 buffer to eliminate the MitoSox reagent, and then transferred in a black-walled 96-well plate for reading. Fluorescence produced by the Mitosox reaction was measured as described before.

The source of these data is patent publication US10709724B2, “Methods of treating mitochondrial dysfunction” (Ecole Polytechnique Federale de Lausanne (EPFL), priority 2011, dated 2020).

Several values for one entry are separate records, joined by “and”; a condition that tells them apart may be missing. Equal entries are not always repeated. Entries after “also recorded” stand apart in the source; their conditions may differ.

As to `O=C(c1cc(Cc2n[nH]c(=O)c3ccccc23)ccc1F)N1CCN(C(=O)C2CC2)CC1` [AZD2281], the “oxygen consumption (respiration)” value with C. elegans [1] is “robustly increased respiration; also recorded: Oxygen consumption was increased”. The “expression of genes of mitochondrial oxidative metabolism (cts-1, cox-4)” value in the test with C. elegans [2] (day 3 of adulthood) was “increased expression of citrate synthase (cts-1) and cytochrome c oxidase subunit 4 (cox-4); also recorded: increased expression of genes involved in mitochondrial oxidative metabolism”. In the test on C. elegans [2] (in vivo), the daf-16 expression entry is listed as “did not change expression of daf-16”. Moreover, the sod-3 expression result with C. elegans [2] (in vivo) was “marked induction”. Moreover, the “mitochondrial content in body wall muscle” value in the test with C. elegans [3] was “more dense mitochondrial network”. In the test on C. elegans [4] (100 nM (FIG. 34B)), the lifespan extension is on record as 22.9%. The “mean lifespan ± SE” value in the test on C. elegans [4] (N2, 100 nM, listed as AZD) was 22.8 ± 0.9 days and 24.7 ± 0.669 days and 26.5 ± 0.77 days and 24.5 ± 0.94 days and 24.7 ± 0.55 days; with C. elegans [4] (N2, 500 nM) it was 22.2 ± 1.15 days; in the test with C. elegans [4] (N2, 1000 nM) it was 21.2 ± 0.96 days; in the test with C. elegans [4] (daf-16(mu86), 100 nM), 18.2 ± 0.76 days; in the test on C. elegans [4] (pme-1(ok988), 100 nM), 26.1 ± 0.78 days; with C. elegans [4] (sir-2.1(ok434), 100 nM), 21.9 ± 0.528 days. The “variation compared to control (%)” value with C. elegans [4] (N2, 500 nM) was “+14.4%”; in the test on C. elegans [4] (N2, 1000 nM), “+9.2%”; in the test on C. elegans [4] (daf-16(mu86), 100 nM), −16.1%; in the test with C. elegans [4] (pme-1(ok988), 100 nM) it was “+31.2%”; in the test on C. elegans [4] (sir-2.1(ok434), 100 nM), “+6.7%”. For the same compound, in the test with C. elegans [4] (daf-16(mu86) mutant worms), the “lifespan in daf-16 mutant worms” value was “failed to increase lifespan; also recorded: fails to extend lifespan”. Further, in the test on C. elegans [4] (pme-1 mutant worms), the “lifespan of the pme-1 mutant” value is listed as “not further extended; also recorded: pme-1-dependent manner”. The “lifespan in sir-2.1(ok434) mutant / sir-2.1 dependence” value in the test on C. elegans [4] (sir-2.1(ok434) mutant worms) was “lost the AZD2281-induced longevity; also recorded: does not extend lifespan”. The “accumulation of the aging pigment lipofuscin” value in the test on C. elegans [5] was “reduced lipofuscin accumulation; also recorded: decreased the accumulation of the aging pigment lipofuscin”. In addition, the “sod-3::GFP” value in the test with C. elegans [5] was “increase in sod-3::GFP”. Moreover, the “ROS production (mitoSOX)” value in the test with C. elegans [6] is “ROS production was decreased”.
